# Target: T1, human SSAO (Homo sapiens, UniProt Q16853)
# T1 construct: made in house
# T1 sequence (Q16853 29-763 limits assumed): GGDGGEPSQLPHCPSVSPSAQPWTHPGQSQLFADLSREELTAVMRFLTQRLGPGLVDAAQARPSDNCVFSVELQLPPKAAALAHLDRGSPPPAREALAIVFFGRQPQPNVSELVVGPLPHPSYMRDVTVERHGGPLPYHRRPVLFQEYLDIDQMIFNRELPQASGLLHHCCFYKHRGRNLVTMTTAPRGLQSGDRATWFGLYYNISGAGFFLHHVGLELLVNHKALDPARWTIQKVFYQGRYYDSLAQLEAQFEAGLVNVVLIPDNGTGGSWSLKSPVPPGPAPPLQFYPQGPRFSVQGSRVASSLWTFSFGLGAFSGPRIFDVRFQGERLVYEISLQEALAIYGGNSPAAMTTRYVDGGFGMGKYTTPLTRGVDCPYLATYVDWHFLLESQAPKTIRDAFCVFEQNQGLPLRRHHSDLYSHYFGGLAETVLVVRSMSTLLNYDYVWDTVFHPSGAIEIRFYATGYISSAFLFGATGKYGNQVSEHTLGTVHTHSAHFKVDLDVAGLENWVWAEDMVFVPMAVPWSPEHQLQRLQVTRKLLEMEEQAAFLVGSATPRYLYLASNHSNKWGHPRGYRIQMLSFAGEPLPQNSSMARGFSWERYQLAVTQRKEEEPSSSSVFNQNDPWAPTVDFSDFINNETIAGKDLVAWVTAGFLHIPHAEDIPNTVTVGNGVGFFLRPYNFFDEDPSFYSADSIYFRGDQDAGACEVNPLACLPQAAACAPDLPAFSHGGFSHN
# Test: SSAO enzyme inhibition assay (benzylamine substrate; HRP-coupled hydrogen peroxide detection or 14C-benzaldehyde detection)
# Format: biochemical
# Settings: purified recombinantly expressed human SSAO, benzylamine as substrate, r.t.; read-out: SSAO inhibitory activity IC50
# Description: All primary assays were performed at r.t. with purified recombinantly expressed human SSAO. Enzyme was prepared essentially as described in Öhman et al. (Protein Expression and Purification 46 (2006) 321-331). In addition, secondary- and selectivity assays were performed using SSAO prepared from various tissues or purified rat recombinant SSAO. The enzyme activity was assayed with benzylamine as substrate by measuring either benzaldehyde production, using ^14C-labeled substrate, or by utilizing the production of hydrogen peroxide in a horseradish peroxidise (HRP) coupled reaction. Briefly, test compounds were dissolved in dimethyl sulfoxide (DMSO) to a concentration of 10 mM. Dose-response measurements were assayed by either creating 1:10 serial dilutions in DMSO to produce a 7 point curve or by making 1:3 serial dilutions in DMSO to produce 11 point curves. The top concentrations were adjusted depending on the potency of the compounds and subsequent dilution in reaction buffer yielded a final DMSO concentration ≦2%.
# In a horseradish peroxidise (HRP) coupled reaction, hydrogen peroxide oxidation of 10-acetyl-3,7-dihydroxyphenoxazine produced resorufin, which is a highly fluorescent compound (Zhout and Panchuk-Voloshina. Analytical Biochemistry 253 (1997) 169-174; Amplex® Red Hydrogen Peroxide/peroxidise Assay kit, Invitrogen A22188). Enzyme and compounds in 50 mM sodium phosphate, pH 7.4 were set to pre-incubate in flat-bottomed microtiter plates for approximately 15 minutes before initiating the reaction by addition of a mixture of HRP, benzylamine and Amplex reagent. Benzylamine concentration was fixed at a concentration corresponding to the Michaelis constant, determined using standard procedures. Fluorescence intensity was then measured at several time points during 1-2 hours, exciting at 544 nm n and reading the emission at 590 nm. For the human SSAO assay final concentrations of the reagents in the assay wells were: SSAO enzyme 1 μg/ml, benzylamine 100 μM, Amplex reagent 20 μM, HRP 0.1 U/mL and varying concentrations of test compound. The inhibition was measured as % decrease of the signal compared to a control without inhibitor (only diluted DMSO). The background signal from a sample containing no SSAO enzyme was subtracted from all data points. Data was fitted to a four parameter logistic model and IC50 values were calculated using the GraphPad Prism 4 or XLfit 4 programs.
# SSAO activity was assayed using 14C-labeled benzylamine and analysed by measuring radioactive benzaldehyde. In a white 96-well optiplate (Packard), 20 μL of diluted test compound was pre-incubated at r.t. with 20 μL SSAO enzyme for approximately 15 minutes with continuous agitation. All dilutions were made with PBS. The reaction was initiated by adding 20 μL of the benzylamine substrate solution containing [7-14C] Benzylamine hydrochloride (CFA589, GE Healthcare). The plate was incubated for 1 hour as above after which the reaction was stopped by acidification (10 μL 1 M HCl). Then 90 μL Micro Scint-E solution (Perkin-Elmer) was added to each well and the plate was continuously mixed for 15 minutes. Phase separation occurred instantly and activity was read in a Topcount scintillation counter (Perkin-Elmer). In the final reaction well, human recombinant SSAO concentration was 10 μg/ml. In order to optimize sensitivity, the substrate concentration was decreased as compared to the HRP coupled assay in order to get a higher fraction of radioactive product. In the human SSAO assay, benzylamine concentration was 40 μM (0.2 μCi/mL). Data was analysed as above.
row,IC50 [µM],Structure (SMILES)
1,0.1 to 0.5,"OC1CCN(Cc2cn(-c3ccc(Cl)cc3)c3cnccc23)CC1 [Compound 30, 1-{[1-(4-Chlorophenyl)-1H-pyrrolo[2,3-c]pyridin-3-yl]methyl}piperidin-4-ol]"
2,0.5 to 2.5,"OCCNCc1cn(-c2ccc(Cl)cc2)c2cnccc12 [Compound 31, 2-({[1-(4-Chlorophenyl)-1H-pyrrolo[2,3-c]pyridin-3-yl]methyl}amino)ethan-1-ol]"
3,0.5 to 2.5,"c1ccc(-n2nc(C3CCOCC3)c3ccncc32)cc1 [Compound 40, 3-(Oxan-4-yl)-1-phenyl-1H-pyrazolo[3,4-c]pyridine]"
4,0.5 to 2.5,"N#Cc1ccc(-n2nc(C3CCOCC3)c3ccncc32)cc1 [Compound 41, 4-[3-(Oxan-4-yl)-1H-pyrazolo[3,4-c]pyridin-1-yl]benzonitrile]"
5,0.1 to 0.5,"FC(F)c1ccc(-n2nc(C3CCOCC3)c3ccncc32)cc1 [Compound 42, 1-[4-(Difluoromethyl)phenyl]-3-(oxan-4-yl)-1H-pyrazolo[3,4-c]pyridine]"
6,0.1 to 0.5,"Cc1ccc(-n2nc(C3CCOCC3)c3ccncc32)c(F)c1 [Compound 43, 1-(2-Fluoro-4-methylphenyl)-3-(oxan-4-yl)-1H-pyrazolo[3,4-c]pyridine]"
7,< 0.1,"Fc1cc(Cl)ccc1-n1nc(C2CCOCC2)c2ccncc21 [Compound 44, 1-(4-Chloro-2-fluorophenyl)-3-(oxan-4-yl)-1H-pyrazolo[3,4-c]pyridine]"
8,0.5 to 2.5,"Cc1ccc(-n2nc(C3CCOCC3)c3ccncc32)c(C)c1 [Compound 45, 1-(2,4-Dimethylphenyl)-3-(oxan-4-yl)-1H-pyrazolo[3,4-c]pyridine]"
9,0.5 to 2.5,"Cc1ccc(-n2nc(C3CCOCC3)c3ccncc32)nc1 [Compound 46, 5-Methyl-2-[3-(oxan-4-yl)-1H-pyrazolo[3,4-c]pyridin-1-yl]pyridine]"
10,0.5 to 2.5,"Cc1ccc(-n2nc(C3CCOCC3)c3ccncc32)cn1 [Compound 47, 2-Methyl-5-[3-(oxan-4-yl)-1H-pyrazolo[3,4-c]pyridin-1-yl]pyridine]"
11,0.1 to 0.5,"FC1(F)CCN(c2nn(-c3ccc(Cl)cc3)c3cnccc23)C1 [Compound 48, 1-[1-(4-Chlorophenyl)-1H-pyrazolo[3,4-c]pyridin-3-yl]-3,3-difluoropyrrolidine]"
12,< 0.1,"OC1CCN(c2nn(-c3ccc(Cl)cc3)c3cnccc23)C1 (centres unmarked) [Compound 49, 1-[1-(4-Chlorophenyl)-1H-pyrazolo[3,4-c]pyridin-3-yl]pyrrolidin-3-ol]"
13,< 0.1,"COC1CCN(c2nn(-c3ccc(C)cc3)c3cnccc23)C1 (centres unmarked) [Compound 50, 3-Methoxy-1-[1-(4-methylphenyl)-1H-pyrazolo[3,4-c]pyridin-3-yl]pyrrolidine]"
14,0.5 to 2.5,"Clc1ccc(-n2nc(N3CCCCC3)c3ccncc32)cc1 [Compound 51, 1-[1-(4-Chlorophenyl)-1H-pyrazolo[3,4-c]pyridin-3-yl]piperidine]"
15,0.1 to 0.5,"FC1(F)CCN(c2nn(-c3ccc(Cl)cc3)c3cnccc23)CC1 [Compound 52, 1-[1-(4-Chlorophenyl)-1H-pyrazolo[3,4-c]pyridin-3-yl]-4,4-difluoropiperidine]"
16,< 0.1,"OC1CCN(c2nn(-c3ccc(Cl)cc3)c3cnccc23)CC1 [Compound 53, 1-[1-(4-Chlorophenyl)-1H-pyrazolo[3,4-c]pyridin-3-yl]piperidin-4-ol]"

row,IC50 [µM],Structure (SMILES)
1,< 0.1,"Cc1ccc(-n2nc(N3CCC(C(N)=O)CC3)c3ccncc32)cc1 [Compound 54, 1-[1-(4-Methylphenyl)-1H-pyrazolo[3,4-c]pyridin-3-yl]piperidine-4-carboxamide]"
2,0.1 to 0.5,"Fc1ccc(-n2nc(N3CCOCC3)c3ccncc32)cc1 [Compound 55, 4-[1-(4-Fluorophenyl)-1H-pyrazolo[3,4-c]pyridin-3-yl]morpholine]"
3,< 0.1,"Clc1ccc(-n2nc(N3CCOCC3)c3ccncc32)cc1 [Compound 56, 4-[1-(4-Chlorophenyl)-1H-pyrazolo[3,4-c]pyridin-3-yl]morpholine]"
4,< 0.1,"Cc1ccc(-n2nc(N3CCOCC3)c3ccncc32)cc1 [Compound 57, 2,2,2-Trifluoroacetic acid; 4-[1-(4-methylphenyl)-1H-pyrazolo[3,4-c]pyridin-3-yl]morpholine]"
5,< 0.1,"Cc1ccc(-n2nc(N3CCOCC3)c3ccncc32)c(F)c1 [Compound 58, 4-[1-(2-Fluoro-4-methylphenyl)-1H-pyrazolo[3,4-c]pyridin-3-yl]morpholine]"
6,< 0.1,"CC1CN(c2nn(-c3ccc(Cl)cc3)c3cnccc23)CCO1 (centres unmarked) [Compound 59, 4-[1-(4-Chlorophenyl)-1H-pyrazolo[3,4-c]pyridin-3-yl]-2-methylmorpholine]"
7,< 0.1,"CC1COCCN1c1nn(-c2ccc(Cl)cc2)c2cnccc12 (centres unmarked) [Compound 60, 4-[1-(4-Chlorophenyl)-1H-pyrazolo[3,4-c]pyridin-3-yl]-3-methylmorpholine]"
8,0.1 to 0.5,"Cc1ccc(-n2nc(N3CCOC(CC(C)C)C3)c3ccncc32)cc1 (centres unmarked) [Compound 61, 4-[1-(4-Methylphenyl)-1H-pyrazolo[3,4-c]pyridin-3-yl]-2-(2-methylpropyl)morpholine]"
9,0.1 to 0.5,"C[C@@H]1CN(c2nn(-c3ccc(Cl)cc3)c3cnccc23)C[C@H](C)O1 [Compound 62, (2S,6R)-4-[1-(4-Chlorophenyl)-1H-pyrazolo[3,4-c]pyridin-3-yl]-2,6-dimethylmorpholine]"
10,< 0.1,"Cc1ccc(-n2nc(N3CC4CCC(C3)O4)c3ccncc32)cc1 [Compound 63, 3-[1-(4-Methylphenyl)-1H-pyrazolo[3,4-c]pyridin-3-yl]-8-oxa-3-azabicyclo[3.2.1]octane]"
11,< 0.1,"Cc1ccc(-n2nc(N3CCOC(C)(C)C3)c3ccncc32)cc1 [Compound 64, 2,2-Dimethyl-4-[1-(4-methylphenyl)-1H-pyrazolo[3,4-c]pyridin-3-yl]morpholine]"
12,0.1 to 0.5,Cc1ccc(-n2nc(N3CCOCC3(C)C)c3ccncc32)cc1 [Compound 65]
13,< 0.1,"COC(=O)C1COCCN1c1nn(-c2ccc(C)cc2)c2cnccc12 (centres unmarked) [Compound 66, Methyl 4-[1-(4-methylphenyl)-1H-pyrazolo[3,4-c]pyridin-3-yl]morpholine-3-carboxylate]"
14,< 0.1,"Cc1ccc(-n2nc(N3CCCOCC3)c3ccncc32)cc1 [Compound 67, 4-[1-(4-Methylphenyl)-1H-pyrazolo[3,4-c]pyridin-3-yl]-1,4-oxazepane]"
15,< 0.1,"Cc1ccc(-n2nc(N3CCNC(=O)C3)c3ccncc32)cc1 [Compound 68, 4-[1-(4-Methylphenyl)-1H-pyrazolo[3,4-c]pyridin-3-yl]piperazin-2-one]"
16,0.1 to 0.5,"COCCN(C)c1nn(-c2ccc(C)cc2)c2cnccc12 [Compound 69, N-(2-Methoxyethyl)-N-methyl-1-(4-methylphenyl)-1H-pyrazolo[3,4-c]pyridin-3-amine]"

# Source: patent US9227967B2, “Inhibitor compounds of semicarbazide-sensitive amine oxidases” (Proximagen Limited, priority 2010, dated 2016)
